# Measurements as given in US9382295B2, “Cyclic depsipeptide compounds and their uses” (Cypralis Limited, priority 2012, dated 2016).
# Where two headings read alike, the source gives them in different places. Numbered stars: 1 amine (or outer) side, 2 acyl side, 3 side chain; on linkers, the order of the positions; unused ones are H or OH. Square brackets hold non-standard residues; d marks the D form. Peptide text beside a SMILES is read from it. X13 = C[C@H](CCN(Cc1ccccn1)Cc1ccccn1)[C@@H](O)[C@H](C(=O)[*:2])N(C)[*:1]; X10 = Cc1cccc(/C=C/C[C@@H](C)[C@@H](O)[C@H](C(=O)[*:2])N(C)[*:1])n1; X32 = CC(=O)N(CC[C@@H](C)[C@@H](O)[C@H](C(=O)[*:2])N(C)[*:1])C(C)C; X33 = C[C@H](CCN1CCC(F)(CO)CC1)[C@@H](O)[C@H](C(=O)[*:2])N(C)[*:1]; X27 = C[C@H](CCN(C)c1ccccn1)[C@@H](O)[C@H](C(=O)[*:2])N(C)[*:1]; X18 = C[C@H](CCNCc1ccccc1)[C@@H](O)[C@H](C(=O)[*:2])N(C)[*:1]; X11 = C[C@H](CCN(C)CCC#N)[C@@H](O)[C@H](C(=O)[*:2])N(C)[*:1]; d(aThr) = C[C@@H](O)[C@@H](N)C(=O)O; NMeL = CN[C@@H](CC(C)C)C(=O)O; dNMeL = CN[C@H](CC(C)C)C(=O)O; dNMeV = CN[C@@H](C(=O)O)C(C)C; Hiv = CC(C)[C@H](O)C(=O)O; dAbu = CC[C@@H](N)C(=O)O; Sar = CNCC(=O)O
# What was measured:
# cyclophilin D (Cyp D) = cyclophilin D (Cyp D) (Homo sapiens, UniProt P30405); test: Protease-free PPIase assay, cyclophilin D; type: biochemical
# Protocol: (§1) The protease-free PPIase assay measures the rate of cis to trans conversion of a peptide substrate catalyzed by the enzymes cyclophilin A and cyclophilin D. Addition of a cyclophilin inhibitor (e.g., a test compound) slows the catalyzed rate and a Ki value is obtained. […] 35 mM HEPES pH 7.8, filtered through a 0.2 μm filter. 50 μM DTT was added prior to use each day and then the buffer was stored on ice. Succinimide-[…]) (from Bachem AG, L-1400), 20 mg/ml prepared in 0.5 M LiCl in trifluoroethanol. All readings were taken with an Agilent 8453 Spectrophotometer which consists of a cuvette holder, stirrer and chiller to maintain a stirred cuvette temperature of 10.0±0.1° C. The temperature is monitored by the use of temperature probe. […] The inhibitor was diluted in 100% DMSO, and then added to the assay to a maximum final concentration of 0.5% DMSO in the assay. A blank spectrum was obtained, then 3 μL of enzyme was added (2 nM final concentration) and then 3 μL substrate (60 μM final concentration) added. The absorbance was measured at 330 nm for 300 s or 500 s for blank runs (NOTE: the substrate must be added in one quick injection and the measurements started immediately to minimize mixing errors). A first order rate equation was fitted to the absorbance data, for each concentration of inhibitor, to obtain the rate constant (the first 10 to 15 seconds were excluded as mixing causes errors in this portion of curve). The catalytic rate was calculated from the enzymatic rate constant minus the background rate constant. An exponential curve was generated using the catalytic rate constants versus the inhibitor concentration to obtain the Ki value for the inhibitor. The Ki value is indicative of the binding affinity between the test compound and cyclophilin A or cyclophilin D.
# [1] = Water solubility assay (pH 7.8 buffer); type: physicochemical
# Protocol: ***Water Solubility Assay (Measured in pH 7.8 Buffer)
# The onset of precipitation, if it occurred, was detected by an increase in absorbance at 650 nm.
# Assay Buffer: 35 mM HEPES pH 7.8
# Stock solutions of Control and Test Compounds: 10 mM in 100% DMSO
# 10 mM stock solutions of control and test compounds were prepared in 100% DMSO. A series of dilutions were prepared from the stock in DMSO so that the final concentrations in the assay were 0, 3.33, 10, 25, 50, 75 and 100 μM and DMSO was limited to 1%.
# Assay buffer (247.5 μl) was placed into flat bottomed transparent 96-well plate. For blank samples DMSO (2.5 μl) was added. For test and control samples 2.5 μl of the appropriate DMSO dilution stocks were added to the appropriate well. All test and control compounds were performed in triplicate.
# The plates were sealed with adhesive plate seal and shaken at 250 rpm at 25° C. for 18 h on a plate shaker.
# After incubation the plate seals were taken off and any bubbles observed in wells removed. The plates were read on a SpectraMaxM5 with a 5 s pre-shake at 650 nm.
# Data files were transferred to the appropriate worksheet and the solubility range of the compounds was calculated from the data.
# The values shown in the tables indicate the concentration in μM (micromolar) at which the compound remains in solution.
# cyclophilin A (Cyp A) = target: T1, cyclophilin A (Cyp A) (Homo sapiens, UniProt P62937); test: Protease-free PPIase assay, cyclophilin A; type: biochemical
# T1 construct: purchased Sigma C3805
# Protocol: as §1, with “ice. Human recombinant cyclophilin A (Cyp A) (Sigma C3805) enzyme was diluted to 1 μM with enzyme dilution buffer (20 mM HEPES pH 7.8, 40% glycerol, 50 μM DTT and 1 μM BSA) and stored at -20° C.” for “ice.”
# [2] = protease-free PPIase assay, class symbols, read-out: CypD Ki
# [3] = 35 mM HEPES buffer, 35 mM HEPES pH 7.8, 1% DMSO, 25° C., 18 h, concentration at which compound remains in solution, read-out: Solubility
# [4] = protease-free PPIase assay, class symbols, read-out: CypA Ki
# T1 sequence (P62937 whole entry): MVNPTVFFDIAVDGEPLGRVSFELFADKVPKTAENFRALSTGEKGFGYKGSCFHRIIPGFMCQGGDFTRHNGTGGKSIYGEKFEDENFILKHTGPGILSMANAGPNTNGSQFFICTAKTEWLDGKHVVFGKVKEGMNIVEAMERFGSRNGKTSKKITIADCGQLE
# Sequence of cyclophilin D (Cyp D) (P30405 30-207): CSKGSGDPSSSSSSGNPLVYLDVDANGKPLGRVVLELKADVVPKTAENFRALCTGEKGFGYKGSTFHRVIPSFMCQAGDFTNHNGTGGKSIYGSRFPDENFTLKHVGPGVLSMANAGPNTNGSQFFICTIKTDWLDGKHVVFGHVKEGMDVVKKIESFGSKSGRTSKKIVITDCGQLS
Ki (cyclophilin D (Cyp D)) [nM],solubility at 18 h ([1]; pH 7.8) [µM],Ki (cyclophilin A (Cyp A)) [nM],Ki (cyclophilin D (Cyp D); [2]) [nM],"solubility at 18 h [1, 3] [µM]",Ki (cyclophilin A (Cyp A); [4]) [nM],SMILES
1 to 25,50 to 75,25 to 100,–,–,–,"CO[C@H](C)[C@H]1NC(=O)[C@@H]([C@H](O)[C@H](C)CCN2CCOCC2)N(C)C(=O)[C@@H](C(C)C)N(C)C(=O)[C@@H](CC(C)C)NC(=O)[C@@H](CC(C)C)N(C)C(=O)[C@H](C(C)C)OC(=O)[C@@H](C)NC(=O)[C@@H](CC(C)C)N(C)C(=O)[C@@H](CC(C)C)NC(=O)[C@H](CC(C)C)N(C)C(=O)CN(C)C1=O (stereo in doubt) [Example 7, cyclo-[(3R,4R,5S)-4-(hydroxy)-3-methyl-5-(methylamino)-1-N-morpholino-hexanoic acid-(O-methyl-Thr)-Sar-MeLeu-Leu-MeLeu-Ala-D-Hiv-MeLeu-Leu-MeVal]]"
1 to 25,> 100,25 to 100,–,–,–,"CC(C)C[C@@H]1C(=O)N[C@H](CC(C)C)C(=O)N(C)[C@H](C(C)C)C(=O)N(C)[C@H]([C@H](O)[C@H](C)CCN(C)CCC#N)C(=O)N[C@H]([C@@H](C)O)C(=O)N(C)CC(=O)N(C)[C@@H](CC(C)C)C(=O)N[C@H](CC(C)C)C(=O)N(C)[C@H](CC(C)C)C(=O)N[C@H](C)C(=O)O[C@@H](C(C)C)C(=O)N1C [Example 27, cyclo-[(3R,4R,5S)-4-(hydroxy)-3-methyl-5-(methylamino)-1-N-(3-methylamino-propionitrile)-hexanoic acid-Thr-Sar-MeLeu-Leu-MeLeu-Ala-D-Hiv-MeLeu-Leu-MeVal]] (cyclo([Hiv][dNMeL][dL][dNMeV][X11][d(aThr)][Sar][NMeL][dL][dNMeL][dA]))"
1 to 25,50 to 75,25 to 100,–,–,–,"CC(=O)N(CC[C@@H](C)[C@@H](O)[C@@H]1C(=O)N[C@H]([C@@H](C)O)C(=O)N(C)CC(=O)N(C)[C@@H](CC(C)C)C(=O)N[C@H](CC(C)C)C(=O)N(C)[C@H](CC(C)C)C(=O)N[C@H](C)C(=O)O[C@@H](C(C)C)C(=O)N(C)[C@H](CC(C)C)C(=O)N[C@H](CC(C)C)C(=O)N(C)[C@H](C(C)C)C(=O)N1C)C(C)C [Example 38, cyclo-[(3R,4R,5S)-1-(acetyl-isopropyl-amino)-4-hydroxy-3-methyl-5-methylamino-hexanoic acid-Thr-Sar-MeLeu-Leu-MeLeu-Ala-D-Hiv-MeLeu-Leu-MeVal]] (cyclo([Hiv][dNMeL][dL][dNMeV][X32][d(aThr)][Sar][NMeL][dL][dNMeL][dA]))"
1 to 25,25 to 50,25 to 100,–,–,–,"CC(C)C[C@@H]1C(=O)N[C@H](CC(C)C)C(=O)N(C)[C@H](C(C)C)C(=O)N(C)[C@H]([C@H](O)[C@H](C)CCNCc2ccccc2)C(=O)N[C@H]([C@@H](C)O)C(=O)N(C)CC(=O)N(C)[C@@H](CC(C)C)C(=O)N[C@H](CC(C)C)C(=O)N(C)[C@H](CC(C)C)C(=O)N[C@H](C)C(=O)O[C@@H](C(C)C)C(=O)N1C [Example 35, cyclo-[(3R,4R,5S)-1-benzylamino-3-methyl-5-methylamino-4-hydroxy-hexanoic acid-Thr-Sar-MeLeu-Leu-MeLeu-Ala-D-Hiv-MeLeu-Leu-MeVal]] (cyclo([Hiv][dNMeL][dL][dNMeV][X18][d(aThr)][Sar][NMeL][dL][dNMeL][dA]))"
–,–,–,100 to 300,> 100,100 to 300,"CC(C)C[C@@H]1C(=O)N[C@H](CC(C)C)C(=O)N(C)[C@H](C(C)C)C(=O)N(C)[C@H]([C@H](O)[C@H](C)CCN2CCC(F)(CO)CC2)C(=O)N[C@H]([C@@H](C)O)C(=O)N(C)CC(=O)N(C)[C@@H](CC(C)C)C(=O)N[C@H](CC(C)C)C(=O)N(C)[C@H](CC(C)C)C(=O)N[C@H](C)C(=O)O[C@@H](C(C)C)C(=O)N1C [Example 25, cyclo-[(3R,4R,5S)-4-(hydroxy)-3-methyl-5-(methylamino)-1-N-((4-fluoro-piperidin-4-yl)-methanol)-hexanoic acid-Thr-Sar-MeLeu-Leu-MeLeu-Ala-D-Hiv-MeLeu-Leu-MeVal]] (cyclo([Hiv][dNMeL][dL][dNMeV][X33][d(aThr)][Sar][NMeL][dL][dNMeL][dA]))"
1 to 25,10 to 25,1 to 25,–,–,–,"CC[C@H]1NC(=O)[C@@H]([C@H](O)[C@H](C)C/C=C/c2cccc(C)n2)N(C)C(=O)[C@@H](C(C)C)N(C)C(=O)[C@@H](CC(C)C)NC(=O)[C@@H](CC(C)C)N(C)C(=O)[C@H](C(C)C)OC(=O)[C@@H](C)NC(=O)[C@@H](CC(C)C)N(C)C(=O)[C@@H](CC(C)C)NC(=O)[C@H](CC(C)C)N(C)C(=O)CN(C)C1=O [Example 19, cyclo-[(3R,4R,5S)-4-(hydroxy)-3-methyl-5-(methylamino)-1-(6-methyl-pyridin-2-yl)-hept-1-enoic acid-Abu-Sar-MeLeu-Leu-MeLeu-Ala-D-Hiv-MeLeu-Leu-MeVal]] (cyclo([Hiv][dNMeL][dL][dNMeV][X10][dAbu][Sar][NMeL][dL][dNMeL][dA]))"
–,–,–,1 to 25,10 to 25,25 to 100,"CC(C)C[C@@H]1C(=O)N[C@H](CC(C)C)C(=O)N(C)[C@H](C(C)C)C(=O)N(C)[C@H]([C@H](O)[C@H](C)CCN(Cc2ccccn2)Cc2ccccn2)C(=O)N[C@H]([C@@H](C)O)C(=O)N(C)CC(=O)N(C)[C@@H](CC(C)C)C(=O)N[C@H](CC(C)C)C(=O)N(C)[C@H](CC(C)C)C(=O)N[C@H](C)C(=O)O[C@@H](C(C)C)C(=O)N1C [Example 30, cyclo-[(3R,4R,5S)-4-(hydroxy)-3-methyl-5-(methylamino)-1-N-(bis-pyridin-2-ylmethyl-amine)-hexanoic acid-Thr-Sar-MeLeu-Leu-MeLeu-Ala-D-Hiv-MeLeu-Leu-MeVal]] (cyclo([Hiv][dNMeL][dL][dNMeV][X13][d(aThr)][Sar][NMeL][dL][dNMeL][dA]))"
1 to 25,25 to 50,1 to 25,–,–,–,"CC(C)C[C@@H]1C(=O)N[C@H](CC(C)C)C(=O)N(C)[C@H](C(C)C)C(=O)N(C)[C@H]([C@H](O)[C@H](C)CCN(C)c2ccccn2)C(=O)N[C@H]([C@@H](C)O)C(=O)N(C)CC(=O)N(C)[C@@H](CC(C)C)C(=O)N[C@H](CC(C)C)C(=O)N(C)[C@H](CC(C)C)C(=O)N[C@H](C)C(=O)O[C@@H](C(C)C)C(=O)N1C [Example 28, cyclo-[(3R,4R,5S)-4-(hydroxy)-3-methyl-5-(methylamino)-1-N-(methyl-pyridin-2-yl-amine)-hexanoic acid-Thr-Sar-MeLeu-Leu-MeLeu-Ala-D-Hiv-MeLeu-Leu-MeVal]] (cyclo([Hiv][dNMeL][dL][dNMeV][X27][d(aThr)][Sar][NMeL][dL][dNMeL][dA]))"
